The values below are quoted from earlier work in article PMC6426469 (Science Advances, 2019).

SMILES strings stand for the structures.

Data set [1] concerns APP/PS1 mice. The conditions noted are these: prolonged treatment for 30 days.
Data set [2] relates to APP/PS1 mice. The conditions noted are these: 1-week treatment.
The next data set concerns DG granule cells. To be noted: previous study.

`C#CCN(C)[C@H](C)Cc1ccccc1` [Selegiline, selegiline]: in the data set with APP/PS1 mice [1], the “spatial memory impairments, Morris water maze” value is listed as “failed to significantly reverse spatial memory impairments”. The “memory impairments, passive avoidance test” value with APP/PS1 mice [2] was “effective in rescuing memory impairments”.
Turning to `C[C@H](NCc1ccc(OCc2cccc(F)c2)cc1)C(N)=O` [safinamide], the “efficacy on spike probability” value in the data set on DG granule cells was “showed prolonged efficacy”.
